Test results published in ChEMBL document CHEMBL5113511, “Discovery of Small-Molecule Degraders of the CDK9-Cyclin T1 Complex for Targeting Transcriptional Addiction in Prostate Cancer” (J Med Chem, 2022).
Activity calls are given as the source filed them.

Tests used:
Format in all cases: cell-based
[1] = biological target: Cyclin-T2 (Homo sapiens) (UniProt O60583); assay: Induction of HyT-mediated degradation of cyclin T2 in human 22Rv1 cells assessed as reduction in cyclin T2 level at 3 to 6 uM incubated for 24 hrs by immunoblot analysis; settings: dose 3-6 µM
Chain of Cyclin-T2 (Homo sapiens) (O60583 whole entry): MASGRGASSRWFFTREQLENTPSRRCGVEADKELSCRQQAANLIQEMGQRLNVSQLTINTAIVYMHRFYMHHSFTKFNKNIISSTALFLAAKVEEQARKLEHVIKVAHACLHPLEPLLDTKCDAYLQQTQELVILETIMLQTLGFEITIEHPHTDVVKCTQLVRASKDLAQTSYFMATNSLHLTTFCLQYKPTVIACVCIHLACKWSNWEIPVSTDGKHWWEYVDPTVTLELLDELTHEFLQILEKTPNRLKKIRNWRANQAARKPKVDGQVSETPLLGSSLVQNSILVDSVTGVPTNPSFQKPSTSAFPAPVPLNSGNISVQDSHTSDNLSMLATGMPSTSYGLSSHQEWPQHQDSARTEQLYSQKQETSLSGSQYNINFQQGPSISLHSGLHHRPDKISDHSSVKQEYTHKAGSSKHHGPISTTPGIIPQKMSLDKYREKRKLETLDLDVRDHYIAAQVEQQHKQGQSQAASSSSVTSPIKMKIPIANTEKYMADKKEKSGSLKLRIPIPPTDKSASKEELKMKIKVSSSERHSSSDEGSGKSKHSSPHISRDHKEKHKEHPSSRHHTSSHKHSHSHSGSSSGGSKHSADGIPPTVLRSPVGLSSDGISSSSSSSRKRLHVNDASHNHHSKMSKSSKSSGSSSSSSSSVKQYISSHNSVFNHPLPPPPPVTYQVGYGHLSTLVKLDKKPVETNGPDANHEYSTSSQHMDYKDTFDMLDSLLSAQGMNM

[2] = biological target: T1, CDK9/cyclin T1 (Homo sapiens) (UniProt O60563+P50750); assay: Induction of CDK9/Cyclin T1 degradation in human 22Rv1 cells assessed as downregulation of c-Myc protein expression at 0.3 to 3 uM measured after 24 hrs by immunoblot analysis; settings: dose 0.3-3 µM
[3] = biological target: Cyclin-T1 (Homo sapiens, UniProt O60563); assay: Induction of HA-tagged Cyclin T1 (unknown origin) polyubiquitination expressed in HEK293T cells co-transfected with Flag-tagged CDK9 and Myc ubiquitin assessed as increase in K48-linkage poly-ubiqutinated Cyclin T1 level at 1 to 2 uM incubated for 20 hrs by immunoprecipitation analysis; settings: dose 1-2 µM
Chain of Cyclin-T1 (O60563 whole entry): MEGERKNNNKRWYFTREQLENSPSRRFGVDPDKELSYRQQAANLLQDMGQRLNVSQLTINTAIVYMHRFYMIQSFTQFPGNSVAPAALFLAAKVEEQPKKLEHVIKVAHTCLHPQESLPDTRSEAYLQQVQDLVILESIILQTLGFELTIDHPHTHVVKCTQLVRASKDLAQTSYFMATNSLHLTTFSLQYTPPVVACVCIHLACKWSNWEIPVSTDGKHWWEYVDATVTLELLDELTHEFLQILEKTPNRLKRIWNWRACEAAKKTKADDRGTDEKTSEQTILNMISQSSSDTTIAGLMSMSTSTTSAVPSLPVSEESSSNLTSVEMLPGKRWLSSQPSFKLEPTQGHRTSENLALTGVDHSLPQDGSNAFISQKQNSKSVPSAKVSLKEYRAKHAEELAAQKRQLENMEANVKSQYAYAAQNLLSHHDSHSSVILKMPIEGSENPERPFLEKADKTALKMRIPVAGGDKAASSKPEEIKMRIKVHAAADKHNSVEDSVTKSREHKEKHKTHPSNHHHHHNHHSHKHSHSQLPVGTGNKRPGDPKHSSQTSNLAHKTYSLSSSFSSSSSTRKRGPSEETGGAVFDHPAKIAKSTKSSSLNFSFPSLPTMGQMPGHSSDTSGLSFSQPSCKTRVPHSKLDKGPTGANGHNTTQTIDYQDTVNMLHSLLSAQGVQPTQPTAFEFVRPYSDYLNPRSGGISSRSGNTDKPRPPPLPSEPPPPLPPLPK

[4] = biological target: T1, CDK9/cyclin T1 (Homo sapiens); assay: Induction of CDK9/Cyclin T1 degradation in human 22Rv1 cells assessed as decrease in cyclin C protein expression at 3 uM measured for 36 hrs by DIA-based proteomics analysis
[5] = biological target: T1, CDK9/cyclin T1 (Homo sapiens); assay: Induction of CDK9/Cyclin T1 degradation in human 22Rv1 cells assessed as downregulation of KLK3 protein expression at 0.3 to 3 uM incubated fo 24 hrs by immunoblot analysis; settings: dose 0.3-3 µM
[6] = biological target: T1, CDK9/cyclin T1 (Homo sapiens); assay: Induction of CDK9/Cyclin T1 degradation in human 22Rv1 cells assessed as downregulation of TP53 gene expression at 2 uM incubated for 24 hrs by RNA-Seq based analysis

Measured: Activity

CC(C)[C@@H]1CC[C@@H](C)C[C@H]1OCC(=O)NCCS(=O)(=O)N1CCC(C(=O)Nc2ncc(SCc3ncc(C(C)(C)C)o3)s2)CC1
active: all assays above
